Reference: patent US11564913B2, “Compositions and methods for treating cancer” (Children's Hospital Medical Center, priority 2019, dated 2023)

Key:
Type in all cases: cell-based
NIH-3T3 cells = test: PDGF-induced circular dorsal ruffle (CDR) formation; settings: 0-3 μM for 1 h, PDGF for 10 min
[1] = test system: MCF7, T47D, and MDA-MB-231 cells; test: Colony formation in soft agar, breast cancer cells; settings: 1 and 3 μM
Experimental: FIG. 4. IODVA1 inhibits proliferation of cancer model cells. (A) IODVA1 is a potent cell proliferation inhibitor. MCF10A, MCF7, MDA-MB-231, and T47D cells were grown in the presence of the indicated IODVA1 concentrations and counted for 4 or up to 7 days. Each dot and bar is the mean±stdev respectively, of 3 independent experiments, with 2 technical replicates in each experiment. (B) Number of colonies made by MCF7, T47D, and MDA-MB-231 cells at the indicated IODVA1 concentrations. Results shown are mean±stdev of 2 independent experiments with 4 technical replicates each. (C) IODVA1 deactivates Ras at late incubation times. […] Quantification summary of 2 independent experiments is presented in the graph. n.s.—not significant, *-p<0.05, **-p<0.01, ****-p<0.0001. (D) IODVA1 inhibits proliferation of ST8814 cells. ST8814 cells were grown in the presence of the indicated IODVA1 concentrations and counted daily for 4 days. Each dot and bar is the mean and standard deviation respectively, of 3 independent experiments.
Applicants tested IODVA1's ability to inhibit the proliferation of cells harboring activated Ras and therefore its ability to recapitulate the compound obtained from the NCI. […] Cells were grown in growth media containing IODVA1 at concentrations between 0.1 and 10 μM or vehicle control and cell number was counted using the trypan blue exclusion method. […]

[2] = test system: Rac1Δ/Δ+Rac2−/− murine leukemic cells expressing p190-BCR-ABL; test: Clonogenic ability of Rac-deficient leukemic cells; settings: 1 μM
Experimental: FIG. 13: IODVA1 decreases Rac activation and signaling. (A) Ba/F3 cells expressing p190-BCR-ABL1 were treated with IODVA1 (3 μM) as indicated and levels of active Rac (Rac-GTP) were assessed by pull-down using GST-PAK-GBD, followed by immunoblotting (upper panel) and densitometric quantification (lower panel). (B) Flow-cytometry analysis of pJNK, pS6, p4EBP, pPAK1, and pAKT of Ba/F3 cells expressing Mieg3 empty vector (light and dark blue) or p190-BCR-ABL1 (light and dark salmon) and treated with vehicle control or IODVA1 (3 μM) for 30 min. (C) Representative histogram data of the cell cycle analysis of Ba/F3 cells expressing p190-BCR-ABL and treated with vehicle control or IODVA1 (1, 3, and 10 μM) for 20 h. (D) Quantification of the average number of colonies of bone marrow wild-type (black) and Rac1^Δ/Δ+Rac2^−/− (red) p190-BCR-ABL1 leukemic cells treated with vehicle control or IODVA1 (IO1, 1 μM). ns—not significant, * p<0.05, ** p<0.01, *** p<0.001. […] (G) Ba/F3 cells expressing p190-BCR-ABL1 were treated with IODVA1 (3 μM) and levels of active Cdc42 (Cdc42-GTP) and Rho (Rho-GTP) were assessed by pull-down at the indicated times using GST-PAK-GBD and GST-Rhotekin respectively, followed by immunoblotting (left panel) and densitometric quantification (right panel). […]
To confirm that IODVA1 targets Rac-dependent pathways, we assessed its effects in a Rac2-null background. […]

For OC1(c2ccccn2)N=C(Nc2nc3ccccc3[nH]2)N=C1c1ccccn1 (stereo not drawn) [IODVA1, (Z)-2-((1H-benzo[d]imidazol-2-yl)imino)-4,5-di(pyridin-2-yl)-2,5-dihydro-1H-imidazol-5-ol], the CDR formation (NIH-3T3 cells) was “inhibited”, the “number of colonies in soft agar” value [1] was “significantly decreases” and the “number of colonies formed” value [2] was “did not alter”.
